# Test results: US20250177576A1, “COMPOUNDS FOR THE MEASUREMENT OF THE OXYGEN CONCENTRATION” (Center for Neuromusculoskeletal Restorative Medicine Limited, priority 2022, published 2025)
# Key:
# Assay type in all cases: physicochemical
# [1] = Oxygen quenching calibration (Stern-Volmer) in tetrahydrofuran; conditions: 10 μM in tetrahydrofuran
# Method: The photoluminescence spectra of the Pt(ttiq)(acac) (10 μM) in tetrahydrofuran in different oxygen concentrations upon 500 nm photoexcitation is presented in FIG. 2A. The phosphorescence peak intensity (698 nm) increases while the oxygen level of the solution decreases, whereas the fluorescence (528 nm) remains independent of the oxygen level. The oxygen quenching of the phosphorescence may be interpreted using Stern-Volmer relationship, in which (I0/I=1+KSV·[O2]) where I: phosphorescence intensity; I0: phosphorescence intensity at 0% of oxygen; KSV: quencher coefficient; [O2]: oxygen concentration. The data of FIG. 2A are fitted with this relationship in FIG. 2B and thus the I0 could be estimated from the equation of (y=133.75801/(1+0.0371−x); adjusted R^2=0.98066). Therefore, a linear correlation of I0/I against [O2](y=1.10962+0.03545 x; adjusted R^2=0.99036) could be established as in FIG. 2C. Mathematically, the Stern-Volmer relationship could be further derived to (R0/R=1+KSV·[O2]) whereas the fluorescence peak intensity is a constant, and thus the R0 could be estimated from the equation of (y=2.04177/(1+0.03267−x); adjusted R^2=0.97785) in FIG. 2D. Similarly, a linear correlation of R0/R against [O2](y=1.07595+0.03165−x; adjusted R^2=0.98135) could be established as in FIG. 2E. In short, the linear correlation between the ratiometric photoluminescence signal and oxygen concentration (%) obtained from FIG. 2E may be utilized to analyze the oxygen content of a tetrahydrofuran sample without the concerns of concentration dependency and absolute intensity value.
# The oxygen concentration (%) or partial pressure of solution samples were varied by O2/N2 gas-purging with a syringe needle and natural ventilation (or gradually adding sodium sulfite (Na2SO3) solution as an oxygen consuming chemical reagent). The instantaneous oxygen concentration (%) of aqueous samples (or oxygen partial pressure values of tetrahydrofuran solutions) at 293 K were measured using pre-calibrated FireSting®-GO2 oxygen meter (PyroScience) coupled with a TDIP15 temperature probe (PyroScience) and a fiber optic sensor (OXR430-OI, or OXSOLV for organic solvent measurement) (PyroScience). The photoluminescence signals of the nano-sensor solution at different oxygen concentrations (%) (or partial pressures) were then measured by the fluorescence spectrophotometer and confocal laser scanning microscope. The calibration curves were established using the signal intensity at 528 nm and 698 nm from the PL spectra, and integrated signals' intensity from customized green channel (507-609 nm) and red channel (657-740 nm) from the CLSM images.
# [2] = PL spectra in water/tetrahydrofuran binary mixtures (aggregation, AIE/ACQ)
# Method: (§1) Proton and carbon NMR spectra were measured in CDCl3 on a Bruker AVANCE III 400 MHz NMR Spectrometer and tetramethylsilane (TMS) was exploited as an internal standard for calibrating the chemical shift. Electrospray Ionization Quadrupole-Time-of-Flight (ESI-Q-TOF) mass spectrometry was performed on an Agilent 6540 Liquid chromatography—ESI-Q-TOF Mass Spectrometer. UV/Vis absorption spectroscopy was performed on a Molecular Devices SpectraMax M2e in different solutions at 293 K. Fluorescence emission spectra were taken from a LS-55 fluorescence spectrophotometer (PerkinElmer) at 293 K.
# In view of the co-planar chemical structure of Pt(ttiq)(acac), it was interesting to look for any aggregation induced emission (AIE) or aggregation caused quenching (ACQ) property. […] When the water fraction further increased to or above 80%, the mixture formed clearly observable precipitates in the cuvette.
# In order to observe whether these nanoaggregates were still readily quenched by oxygen, the PL spectra of the nanoaggregates' solution with a fwater of 60% was compared before and after the deaeration.
# [3] = Photoluminescence spectra in dichloromethane, oxygen-free vs ambient; conditions: 10 μM in dichloromethane, excitation 500 nm
# Method: as §1
compound,measurement,setting,value
CC(=O)C=C(C)[O][Pt][c]1c(-c2nccc3ccccc23)sc2ccsc12 [Pt(ttiq)(acac)],quencher coefficient KSV from fit of PL intensity ratio (FIG. 2D),[1],0.03267
same,slope of linear correlation I0/I against [O2] (FIG. 2C),[1],0.03545
same,slope of linear correlation R0/R against [O2] (FIG. 2E calibration curve),[1],0.03165
same,fluorescence peak wavelength,[1]; excitation 500 nm,528 nm
same,phosphorescence peak wavelength,[1]; excitation 500 nm,698 nm
same,quencher coefficient KSV from fit of phosphorescence intensity (FIG. 2B),[1]; vs oxygen partial pressure,0.0371
same,oxygen response of nanoaggregates,"[2]; fwater 60%, before and after deaeration",still very responsive to the oxygen content
same,aggregation induced emission property,"[2]; water fraction 0 to 70% in tetrahydrofuran, 10 μM, ambient, excitation 500 nm",AIE-active species in the region of 650-750 nm
same,water fraction at which clearly observable precipitates form,"[2]; water/tetrahydrofuran mixture, 10 μM",≥ 80%
same,constant PL peak (fluorescence) wavelength,[3]; disregarding oxygen content,528 nm
same,maximum phosphorescence intensity wavelength,[3]; oxygen-sensitive peak,698 nm
